Experimental data published in ChEMBL document CHEMBL3856190, “Novel spirothiazamenthane inhibitors of the influenza A M2 proton channel” (Eur J Med Chem, 2016).
Calls of active or inactive are those of the source. The calls are words filed in the database; no cut-off is given here.

Experiments:
[1] = Cytotoxicity against yeast cells assessed as growth inhibition at 100 uM after 44 hrs by turbidometric assay; type: toxicity, cell-based; conditions: saccharomyces cerevisiae
[2] = Inhibition of Influenza A virus A/udorn/72(H3N2) wild type M2 proton channel expressed in yeast assessed as growth restoration measured after 44 hrs by turbidometric assay; set-up: species or system Influenza A virus (A/udorn/1972(H3N2))
MDCK [3] = test: Antiviral activity against Influenza A virus A/Puerto Rico/8/34 expressing wild type M2 proton channel infected MDCK cells assessed as inhibition of viral replication at 20 to 100 uM measured after 10 hrs by miniplaque assay; type: functional, cell-based; conditions: Influenza A virus (A/Puerto Rico/8/1934(H1N1))
[4] = Cytotoxicity against MDCK cells assessed as reduction in cell viability at 100 uM; type: toxicity, cell-based, Canis lupus familiaris; conditions: dog
[5] = Cytotoxicity against yeast cells assessed as growth inhibition after 44 hrs by turbidometric assay; type: toxicity, cell-based; conditions: Saccharomyces cerevisiae
[6] = Cytotoxicity against MDCK cells at 3 uM measured after 72 hrs by MTT assay; type: toxicity, cell-based, Canis lupus familiaris; conditions: dog
[7] = Antiviral activity against Influenza A virus A/Puerto Rico/8/34 expressing wild type M2 proton channel infected in MDCK cells assessed as inhibition of viral replication measured after 10 hrs by miniplaque assay; type: functional, cell-based, Influenza A virus (A/Puerto Rico/8/1934(H1N1))
MDCK [8] = test: Antiviral activity against amantadine-sensitive Influenza A virus A/Hong Kong/1/68(H3N2) infected in MDCK cells assessed as protection from virus-induced cell death at 1 uM measured after 72 hrs by MTT assay; type: functional, cell-based; conditions: Influenza A virus (A/Hong Kong/1/1968(H3N2))
[9] = Antiviral activity against Influenza A virus A/Puerto Rico/8/34 expressing wild type M2 proton channel infected in MDCK cells assessed as inhibition of viral replication at >= 0.8 uM measured after 10 hrs by miniplaque assay; type: functional, Influenza A virus (A/Puerto Rico/8/1934(H1N1))

| Structure (SMILES) | Activity [1] | EC50 [2] | IC50 at 44 h [5] | further results |
| --- | --- | --- | --- | --- |
| CCCCN1CCN(CCNC2=NC(C)(C)[C@]3(CC[C@H](C)CC3)S2)CC1 | Non-Toxic | 3 µM |  | inhibition (MDCK [3]): Active; Activity [4]: Toxic |
| Cc1cccnc1NCCNC1=NC(C)(C)[C@]2(CC[C@H](C)CC2)S1 |  |  | 100 µM |  |
| CC(C)N1CCN(CCNC2=NC(C)(C)[C@]3(CC[C@H](C)CC3)S2)CC1 | Non-Toxic | 30 µM |  |  |
| CC1(C)N=C(NCc2cccs2)S[C@]12CC[C@@H](C)CC2 |  |  | 30 µM |  |
| CC1(C)N=C(N)S[C@]12CC[C@@H](C)CC2 | Non-Toxic | 0.03 µM |  | Activity [6]: Non-Toxic; EC50 [7]: 0.02 µM; Activity (MDCK [8]): Active |
| CC1(C)N=C(NCCN2CCN(CC3CCCCC3)CC2)S[C@]12CC[C@@H](C)CC2 | Non-Toxic | 20 µM |  |  |
| COc1ccc(CNC2=NC(C)(C)[C@]3(CC[C@H](C)CC3)S2)c(OC)c1 |  | > 30 µM | 100 µM |  |
| CC1(C)N=C(N2CCCCC2)S[C@]12CC[C@@H](C)CC2 | Non-Toxic | 10 µM |  |  |
| CC1(C)N=C(N2CCNCC2)S[C@]12CC[C@@H](C)CC2 | Non-Toxic | > 100 µM |  |  |
| CC1(C)N=C(NCCN2CCN(CCO)CC2)S[C@]12CC[C@@H](C)CC2 | Non-Toxic | 50 µM |  |  |
| CN1CCN(C2=NC(C)(C)[C@]3(CC[C@H](C)CC3)S2)CC1 | Non-Toxic | > 100 µM |  |  |
| CC1(C)N=C(NS(=O)(=O)c2ccccc2)S[C@]12CC[C@@H](C)CC2 |  |  | 30 µM |  |
| Cc1cnc(CN2CCN(CCNC3=NC(C)(C)[C@]4(CC[C@H](C)CC4)S3)CC2)cn1 |  | 20 µM | 100 µM |  |
| CC1(C)N=C(NCCN2CCCC2)S[C@]12CC[C@@H](C)CC2 | Non-Toxic | 8 µM |  |  |
| CC1(C)N=C(NCc2cc(-c3ccccc3)on2)S[C@]12CC[C@@H](C)CC2 |  |  | 10 µM |  |
| CC1(C)N=C(NCCN2CCN(Cc3ccccc3)CC2)S[C@]12CC[C@@H](C)CC2 |  | 0.6 µM | > 30 µM | inhibition (MDCK [3]): Active; Activity [4]: Toxic |
| CN(C)CCN1CCN(CCNC2=NC(C)(C)[C@]3(CC[C@H](C)CC3)S2)CC1 | Non-Toxic | 70 µM |  | inhibition (MDCK [3]): Active |
| CC1(C)N=C(NC(=O)c2ccccc2)S[C@]12CC[C@@H](C)CC2 |  |  | 10 µM |  |
| COc1ccc(CNC2=NC(C)(C)[C@]3(CC[C@H](C)CC3)S2)cc1Cl |  |  | > 30 µM |  |
| CC1(C)N=C(NCCN2CCOCC2)S[C@]12CC[C@@H](C)CC2 | Non-Toxic | > 100 µM |  |  |
| CC1(C)N=C(NCC2CCNCC2)S[C@]12CC[C@@H](C)CC2 | Non-Toxic | > 100 µM |  |  |
| COc1ccc(CNC2=NC(C)(C)[C@]3(CC[C@H](C)CC3)S2)cc1 |  |  | 30 µM |  |
| CCN1CCN(CCNC2=NC(C)(C)[C@]3(CC[C@H](C)CC3)S2)CC1 |  | > 30 µM | 100 µM |  |

| Structure (SMILES) | Activity [1] | EC50 [2] | IC50 at 44 h [5] | further results |
| --- | --- | --- | --- | --- |
| CC1(C)N=C(NCc2cccc(F)c2)S[C@]12CC[C@@H](C)CC2 |  |  | 10 µM |  |
| CC1(C)N=C(NCc2ccccc2)S[C@]12CC[C@@H](C)CC2 |  |  | 10 µM |  |
| NC12CC3CC(CC(C3)C1)C2 [AMANTADINE] |  | 0.1 µM |  | inhibition (INH) [9]: >90%; Activity [6]: Non-Toxic; EC50 [7]: 0.04 µM; Activity (MDCK [8]): Active |
| COCCNC1=NC(C)(C)[C@]2(CC[C@H](C)CC2)S1 | Non-Toxic |  |  |  |
| CCCCOc1ccc(CN2CCN(CCNC3=NC(C)(C)[C@]4(CC[C@H](C)CC4)S3)CC2)cc1 |  |  | 3 µM |  |
| CC1(C)N=C(NCc2cccc(O)c2)S[C@]12CC[C@@H](C)CC2 | Non-Toxic | > 40 µM |  |  |
| CN1CCC(CNC2=NC(C)(C)[C@]3(CC[C@H](C)CC3)S2)CC1 | Non-Toxic | 10 µM |  |  |
| COc1ccc(C(=O)NC2=NC(C)(C)[C@]3(CC[C@H](C)CC3)S2)cc1 |  |  | 10 µM |  |
| CC1(C)N=C(NCc2cccnc2)S[C@]12CC[C@@H](C)CC2 | Non-Toxic | 5 µM |  |  |
| COc1ccc(C(=O)NC2=NC(C)(C)[C@]3(CC[C@H](C)CC3)S2)c(OC)c1 |  |  | 3 µM |  |
| CC1(C)N=C(NCCN2CCCCC2)S[C@]12CC[C@@H](C)CC2 | Non-Toxic | > 100 µM |  |  |
| CC1(C)N=C(NCc2ccncc2)S[C@]12CC[C@@H](C)CC2 | Non-Toxic | 2 µM |  |  |
| CC1(C)N=C(NCc2ccccc2F)S[C@]12CC[C@@H](C)CC2 |  |  | 10 µM |  |
| CCOCCN1CCN(CCNC2=NC(C)(C)[C@]3(CC[C@H](C)CC3)S2)CC1 | Non-Toxic | 2.1 µM |  | inhibition (MDCK [3]): Active |
| CC1(C)N=C(NCc2ccccn2)S[C@]12CC[C@@H](C)CC2 | Non-Toxic | 10 µM |  |  |
| CC(C)(C)OC(=O)N1CCN(CCNC2=NC(C)(C)[C@]3(CC[C@H](C)CC3)S2)CC1 |  |  | > 30 µM |  |
| CC1(C)N=C(NCCc2cccnc2)S[C@]12CC[C@@H](C)CC2 | Non-Toxic | 0.9 µM |  |  |
| COc1ccccc1CNC1=NC(C)(C)[C@]2(CC[C@H](C)CC2)S1 |  |  | 10 µM |  |
| CC1(C)N=C(NCCc2ccncc2)S[C@]12CC[C@@H](C)CC2 | Non-Toxic | > 100 µM |  |  |
| CC1(C)N=C(NCCc2ccccn2)S[C@]12CC[C@@H](C)CC2 | Non-Toxic | 3 µM |  |  |
| CC1(C)N=C(NCCN2CCNCC2)S[C@]12CC[C@@H](C)CC2 | Non-Toxic | 2.6 µM |  |  |
| CC1(C)N=C(NCCN2CCN(S(C)(=O)=O)CC2)S[C@]12CC[C@@H](C)CC2 | Non-Toxic |  |  |  |
| CC1(C)N=C(NCc2ccc3cc[nH]c3c2)S[C@]12CC[C@@H](C)CC2 |  |  | > 30 µM |  |

| Structure (SMILES) | Activity [1] | EC50 [2] | IC50 at 44 h [5] | further results |
| --- | --- | --- | --- | --- |
| CN(C)CCNC1=NC(C)(C)[C@]2(CC[C@H](C)CC2)S1 | Non-Toxic | 100 µM |  |  |
| CN1CCN(CCNC2=NC(C)(C)[C@]3(CC[C@H](C)CC3)S2)CC1 | Non-Toxic | 3 µM |  | inhibition (MDCK [3]): Active |
| COc1ccc(CNC2=NC(C)(C)[C@]3(CC[C@H](C)CC3)S2)cc1F |  |  | 100 µM |  |
| CC1(C)N=C(NCCNCc2ccccc2)S[C@]12CC[C@@H](C)CC2 |  |  | 100 µM |  |
| CC1(C)N=C(N2CCOCC2)S[C@]12CC[C@@H](C)CC2 | Non-Toxic | 0.7 µM |  |  |
| CC1(C)N=C(NCCn2ccnc2)S[C@]12CC[C@@H](C)CC2 | Non-Toxic | > 100 µM |  |  |
| COc1cccc(CNC2=NC(C)(C)[C@]3(CC[C@H](C)CC3)S2)c1 |  |  | 30 µM |  |
| CC1(C)N=C(NCc2ccco2)S[C@]12CC[C@@H](C)CC2 |  |  | > 30 µM |  |
| CC1(C)N=C(NCc2ccc(F)cc2)S[C@]12CC[C@@H](C)CC2 |  |  | 30 µM |  |
| CC(=O)N1CCN(CCNC2=NC(C)(C)[C@]3(CC[C@H](C)CC3)S2)CC1 | Non-Toxic | 26 µM |  |  |
| CC1(C)N=C(NCc2ccc(C#N)cc2)S[C@]12CC[C@@H](C)CC2 |  |  | 100 µM |  |
| CCCCCCCCN1CCN(CCNC2=NC(C)(C)[C@]3(CC[C@H](C)CC3)S2)CC1 | Non-Toxic | 10 µM |  | inhibition (MDCK [3]): Active |
| CC1(C)N=C(NCc2ccc(O)c(F)c2)S[C@]12CC[C@@H](C)CC2 |  | 10 µM | > 30 µM |  |
| CC(C)CCN1CCN(CCNC2=NC(C)(C)[C@]3(CC[C@H](C)CC3)S2)CC1 | Non-Toxic | 10 µM |  | inhibition (MDCK [3]): Active; Activity [4]: Toxic |
| CC1(C)N=C(NCCNc2ccccc2)S[C@]12CC[C@@H](C)CC2 |  |  | 10 µM |  |
| CC1(C)N=C(NCc2ccccc2O)S[C@]12CC[C@@H](C)CC2 |  | 10 µM | 100 µM |  |
| CC1(C)N=C(NCCn2cccc2)S[C@]12CC[C@@H](C)CC2 |  |  | 100 µM |  |
| CC1(C)N=C(NCCN2CCN(S(=O)(=O)c3ccccc3)CC2)S[C@]12CC[C@@H](C)CC2 | Non-Toxic | 18 µM |  |  |
| COc1ccc(CNC2=NC(C)(C)[C@]3(CC[C@H](C)CC3)S2)cc1OC | Non-Toxic |  |  |  |
| CC1(C)N=C(NCc2ccc3c(c2)OCO3)S[C@]12CC[C@@H](C)CC2 |  |  | > 30 µM |  |
| COc1cc(F)ccc1CNC1=NC(C)(C)[C@]2(CC[C@H](C)CC2)S1 |  |  | > 30 µM |  |
